Peptide text beside a SMILES is read from it.
Legend:
[1] = test system: Imiquimod-induced psoriasis in mice; assay: Imiquimod-induced psoriasis, ear histopathology; type: in vivo, mouse; conditions: 10 mg/kg PO daily
Procedure: Female BALB/cAnNCrl mice (Charles River, age 8 to 10 weeks at study start) have been assigned to the following groups (treatment schedule):
In this experiment, two positive controls have been utilized. Firstly, Prednisolone at 10 mg/kg (vehicle: 1% Hydroxyethylcellulose, 0.25% Polysorbate 80, and 0.05% Antifoam in purified water) has been dosed daily and orally (group “Prednisolone”). Secondly, Dexamethasone has been administered at 0.5 mg/kg (vehicle: sterile 0.9% NaCl) on days 1, 4 and 7 via intravenous route.
On day 8, animals have been sacrificed and the tissue (ear) has been fixed in 10% neutral buffered formalin. For histopathology hematoxylin-and-eosin-stained sections (cross cut) have been prepared and microscopic evaluation on the collected tissues from all animals has been performed. Methods and end-points for histopathology were similarly described in the van der Fits (2009) paper in that inflammation, epidermal hyperplasia, epidermal hyperkeratosis (rather than parakeratosis) were observed and recorded for severity grade, whereby the respective methodology from Van der Fits et al. (The Journal of Immunology 2009, 182, P. 5836-5845) is hereby incorporated by reference. Histopathology grading scores were excluded for either skin or ear in animals with secondary inflammatory processes (full thickness epidermal ulcers). Scores were averaged by group and standard deviation and statistical significance were calculated. […] Formalin-fixed, paraffin embedded skin from the dorsal surface of the mouse (BALB/c) was stained with hematoxylin and eosin (H&E) stain and assessed microscopically. An important difference from the above reference and to describe in more detail the observations of the present study: Hyperkeratosis can be defined specifically as orthokeratotic (no retained nuclei) or parakeratotic (retained nuclei). Either can occur normally in various anatomical locations and depending on species; however, both conditions are well defined in particular disease states. The van der Fits paper describes their Imiquimod (IMQ)-induced psoriasis model as causing parakeratotic hyperkeratosis similar to what is seen in the human condition, and that was a defined end-point for this study. However, the Danilenko et al. (Veterinary Pathology 2008 45:563) has shown that many rodent psoriasis models have orthokeratotic hyperkeratosis. […] The more general term ‘hyperkeratosis’ was used for grading end-points and describe in the text what type was seen (primarily orthokeratotic).
Microscopic Histopathology end-points were graded as such: […]

[2] = Stability (half-life) in human serum, UPLC-MS; conditions: human serum (10 and 50% in PBS; FIG. 5: 50%), 0.1 mM peptide
Procedure: The experiment was performed as described by Tugyi et al. (Proc Natl Acad Sci USA, 2005, 413-418). The remaining intact peptide was quantified by UPLC-MS.

[3] = test system: Endotoxin-Induced Uveitis (EIU) model in rats; assay: Action duration in endotoxin-induced uveitis (EIU), clinical scoring and PMN cells quantification; type: in vivo, rat; conditions: 2 mg/kg i.v. immediately before EIU induction
Procedure: […] (18) female Lewis rats (36 eyes) were randomly divided into 6 groups of 3 animals each. EIU was induced by a single footpad injection of 100 µl sterile pyrogen-free saline containing 200 µg of LPS (Lipopolysaccharides from Salmonella typhimurium, Sigma-Aldrich, France)(2 mg/ml).
Animals were treated 48 hours, 1 week, 2 weeks or 4 weeks before EIU induction by intravenous injection of the JNK inhibitor according to SEQ ID NO: 172 (“XG-104”) at a single dose of 1 mg/kg (dose volume 1 ml/kg) in the tail vein. Dexamethasone 2 mg/kg or vehicle (NaCl 0.9%) were injected intravenously immediately before EIU induction.
The effect of the JNK inhibitor according to SEQ ID NO: 172 (“XG-104”) on EIU was evaluated using clinical scoring and PMN cells quantification 24 hours after induction. Ocular examinations were performed by slit lamp at 24 hours i.e. at the clinical peak of the disease in this model. The intensity of clinical ocular inflammation was scored on a scale from 0 to 5 for each eye: • Grade 0: no inflammation, • Grade 1: presence of a minimal iris and conjunctival vasodilatation but without the observation of flare or cells in the anterior chamber (AC), • Grade 2: presence of moderate iris and conjunctival vessel dilation but without evident flare or cells in the AC, • Grade 3: presence of intense iris vessels dilation, flare and less than 10 cells per slit lamp, field in the AC, • Grade 4: presence of more severe clinical signs than grade 3, with more than 10 cells in the AC with or without the formation of a hypopyon, • Grade 5: presence of intense inflammatory reaction, fibrin formation in the AC and total seclusion of the pupil.
For histology, eighteen eyeballs (one per animal) were collected and fixed for 1 h at room temperature in phosphate buffered saline (PBS) containing 4% paraformaldehyde before being rinsed overnight in PBS. The next day, samples were embedded in optimal cutting temperature (OTC) compound (Tissue-Tek®, Sakura Finetek, Zoeterwoude, Netherland) and the optic nerve level using a cryostat (Leica CM 3050S, France) and mounted on super-frost slides for histology. After nuclei staining with DAPI (Sigma-Aldrich, France), sections were mounted in PBS/Glycerol (1/1) and observed by fluorescence photomicroscopy (FXA Microphot, Nikon, USA). Digitized micrographs were obtained usinga digital camera (Spot, BFI Optilas, France). PMN cells identified by the shape of their nuclei stained with DAPI, were quantified on histological sections. The analysis was performed with 2 different sections per eye at the optic nerve head level.
Twenty-four hours after LPS induction, clinical scores for the vehicle-treated rats were 4.6±0.2 (mean±SEM, n=8). Reduction was calculated as (grade in vehicle-treated eye—grade in test item treated eye)/(grade in vehicle-treated eye). A significant reduction (*p<0.05, **p<0.01) in the severity of the ocular inflammation was detected 24 hours after induction and intravenous treatment with the JNK inhibitor according to SEQ ID NO: 172 (“XG-104”) (1 mg/kg) administered 48 hours before EIU induction (mean score: 2.8±0.3), corresponding to a 40% (**) decrease of EIU scores compared with the score observed in vehicle group, 24 hours after induction and intravenous treatment with the JNK inhibitor according to SEQ ID NO: 172 (“XG-104”) (1 mg/kg) administered 1 week before EIU induction (mean score: 3.3±0.3), corresponding to a 27% (*) decrease of EIU scores compared with the score observed in vehicle group, and 24 hours after induction and intravenous treatment with the JNK inhibitor according to SEQ ID NO: 172 (“XG-104”) (1 mg/kg) administered 2 weeks before EIU induction (mean score: 3.0±0.2), corresponding to a 35% (**) decrease of EIU scores compared with the score observed in vehicle group. […]

[4] = test system: endotoxins-induced uveitis albino rat model; assay: Endotoxins-induced uveitis (EIU), single intravenous injection, clinical scoring; type: in vivo; set-up: key to clinical score (mean±SEM) / clinical score, median: clinical ocular inflammation score per eye, 0 to 4; conditions: sub-conjunctival, 20 Dg/eye; 24 h after LPS
Procedure: The anti-inflammatory potency of the JNK inhibitor of SEQ ID NO: 172 was tested in albino rats following intravenous administration (EIU/LPS model). The aim of this study was to determine the effects of single intravenous injections of SEQ ID NO: 172 (0.015, 0.18, and 1.80 mg/kg) on the inflammatory response in an endotoxins-induced uveitis albino rat model and to compare these affects to those obtained with prior art JNK inhibitor of SEQ ID NO: 197 (2 mg/kg). As a further control served phosphate sodic dexamethasone (“reference”) and vehicle (0.9% NaCl).
Sixty (60) male Lewis rats were randomly divided into six (6) groups often (10) animals each. 0.9% NaCl (vehicle, “control”), SEQ ID NO: 197 at 2 mg/kg and SEQ ID NO: 172 at three concentrations (1.80 mg/kg, 0.18 mg/kg and 0.015 mg/kg) were administered by intravenous injection just before EIU induction (on the day of induction). Accordingly, phosphate sodic dexamethasone (20 Dg/eye, 5 μl; “reference”) was administered by a single sub-conjunctival injection in both eyes just before EIU induction (on the day of induction). EIU was induced by footpad injection of lipopolysaccharide (LPS, 1 mg/kg). 24 hours after LPS injection, inflammatory response was evaluated by clinical scoring.
The intensity of clinical ocular inflammation was scored on a scale from 0 to 4 for each eye: […]

[5] = test system: established type II collagen arthritis in rats; assay: Chronic established type II collagen arthritis, daily IV 14 days; type: in vivo, rat
Description: Rat collagen arthritis is an experimental model of polyarthritis that has been widely used for preclinical testing of numerous anti-arthritic agents that are either under preclinical or clinical investigation or are currently used as therapeutics in this disease. […] Animals were terminated on arthritis day 14.

[6] = test system: acute CYP-induced cystitis in female Sprague-Dawley rats; assay: Cyclophosphamide-induced acute cystitis, intravesical treatment, visceral pain and bladder inflammation; type: in vivo, rat; conditions: 50 mg/mL, i.ves.
Procedure: This preclinical model is well-used to test therapeutic approaches for the treatment of interstitial cystitis/painful bladder syndrome (IC/PBS).
Animals were acclimatized to the laboratory conditions for at least 3 days before the start of any experiments. The animals were allocated to the following four experimental groups (n=10 animals per group):
To induce acute cystitis, a single i.p. injection of CYP at a dose of 150 mg/kg in a final volume of 5 mL/kg was performed. Control rats received physiological saline under the same experimental conditions as CYP (final volume of 5 mL/kg, i.p.).
On the day of each experiment, weight of rats was recorded.
Standardized conditions including fixed time-of-day (a.m. to minimize the potential circadian variations in the behaviours responses) and single-experimenter testing of all animals were applied to minimize variability behavior-based pain testing. Visceral pain including allodynia and hyperalgesia was evaluated by applying to the lower abdomen, close to the urinary bladder, a set of 8 calibrated von Frey filaments of increasing forces (1, 2, 4, 6, 8, 10, 26 and 60 g) with an interstimulus interval of 5 seconds. Prior testing, the abdominal area designed for mechanical stimulation of each animal was shaved. Animals were then placed on a raised wire mesh floor under individual transparent Plexiglas box and acclimatized for at least 30 minutes before starting the von Frey test. Filaments were then applied 1-2 seconds through the mesh floor with enough strength to cause the filament to slightly bend. Each filament was tested 3 times. Care was taken to stimulate different areas within the lower abdominal region in the vicinity of the urinary bladder to avoid desensitization.
Nociceptive behaviors were scored for each animal and each filament as follows:
The study design is schematically shown in FIG. 50 A. Birefly, acute cystitis was induced by CYP injection (i.p.) at Do (as described above).
Urinary bladders were rapidly collected and cleaned from lipoid tissue. Urinary bladders were weighed, cut at the bladder neck as well as oedema and haemorrhage scoring was performed (see table below). Finally, wall thickness was measured using a digital caliper by placing the bladder wall between the two outside jaws.

[7] = vs disease controls, IV QD d1-14, Dex 0.05 mg/kg, SEQ ID NO: 172 up to 5 mg/kg

C[C@]12C=CC(=O)C=C1CC[C@@H]1[C@@H]2[C@@H](O)C[C@@]2(C)[C@H]1CC[C@]2(O)C(=O)CO [Prednisolone, reference compound]
epidermal hyperkeratosis of the ear (average grades) [1]: minimally decreased average grades | inflammation of the ear (average grade) vs vehicle-IMQ [1]: decreased inflammation of the ear | inflammation of the ear (average grade) vs vehicle-IMQ ([1]; listed as prednisolone): significant differences from the vehicle control group

CC(C)C[C@H](NC(=O)[C@H](CC(N)=O)NC(=O)[C@H](CC(C)C)NC(=O)[C@@H](NC(=O)[C@@H](NC(=O)[C@@H]1CCCN1C(=O)[C@H](CCCNC(=N)N)NC(=O)[C@H](CCCCN)NC(=O)[C@@H]1CCCN1C(=O)[C@H](CCCNC(=N)N)NC(=O)[C@@H]1CCCN1C(=O)[C@@H]1CCCN1C(=O)[C@H](CCCNC(=N)N)NC(=O)[C@H](CCCNC(=N)N)NC(=O)[C@H](CCCNC(=N)N)NC(=O)[C@H](CCC(N)=O)NC(=O)[C@H](CCCNC(=N)N)NC(=O)[C@H](CCCNC(=N)N)NC(=O)[C@H](CCCCN)NC(=O)[C@H](CCCCN)NC(=O)[C@H](CCCNC(=N)N)NC(=O)CN)[C@@H](C)O)[C@@H](C)O)C(=O)N[C@@H](Cc1ccccc1)C(=O)N1CCC[C@H]1C(=O)N[C@@H](CCC(N)=O)C(=O)N[C@H](C(=O)N1CCC[C@H]1C(=O)N[C@@H](CCCNC(=N)N)C(=O)N[C@@H](CO)C(=O)N[C@@H](CCC(N)=O)C(=O)N[C@@H](CC(=O)O)C(N)=O)C(C)C [SEQ ID NO: 196, reference compound] (H-GRKKRRQRRRPPRPKRPTTLNLFPQVPRSQD-NH2)
time until totally degraded into amino acids residues [2]: ≤ 6 h

C[C@@H]1C[C@H]2[C@@H]3CCC4=CC(=O)C=C[C@]4(C)[C@@]3(F)[C@@H](O)C[C@]2(C)[C@@]1(O)C(=O)CO [dexamethasone, reference compound]
clinical score (mean±SEM) [3]: 1.4±0.2 | decrease of clinical scores vs vehicle group [3]: 69% | clinical score (mean±SEM) [4]: 0.8±0.2 | clinical score, median [4]: 0.5 | ankle diameter AUC, reduction toward normal ([5]; 0.05 mg/kg IV QD d1-14): 97% | inhibition of body weight loss vs disease controls ([5]; 0.05 mg/kg IV QD d1-14): 21% | final paw weights, reduction toward normal ([5]; Dex 0.05 mg/kg IV QD d1-14): 114% | spleen weights relative to body weight [5, 7]: significantly (p<0.05 by ANOVA) reduced | thymus weights relative to body weight [5, 7]: significantly (p<0.05 by ANOVA) reduced

CC(C)Cc1ccc(C(C)C(=O)O)cc1 (stereo not shown) [ibuprofen, reference compound]
urine observation [6]: reddish urine was noticed for some animal | haemorrhage scores vs vehicle ([6]; 24 h after CYP): no significant change | nociceptive scores vs vehicle ([6]; 24 h after CYP): significant decrease | nociceptive threshold vs vehicle ([6]; 24 h after CYP): significantly increased | oedema scores vs vehicle ([6]; 24 h after CYP): significant decrease | urinary bladder wall thickness vs vehicle ([6]; 24 h after CYP): significant decrease

— patent US11331364B2, “Use for JNK inhibitor molecules for treatment of various diseases” (Xigen Inflammation Ltd., priority 2014, dated 2022)
